Legend:
[1] = tested on: wheat; experiment: Test A preemergence; type: in vivo, Triticum aestivum; conditions: preemergence
Outline: (§1)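 Visual injury rating, 0–100 (0 no effect, 100 complete control), vs untreated controls ~10 days after treatment in greenhouse. Pre: directed soil spray on seeded loam/sand. Post: 2–10 cm plants, 1–2 leaf stage. Formulation: non-phytotoxic solvent mix + surfactant.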

[2] = tested on: pigweed; experiment: Test A postemergence; type: in vivo, Amaranthus retroflexus
Outline: as §1

[3] = tested on: ducksalad; experiment: Test B flood; type: in vivo, Heteranthera limosa; conditions: 250 g ai/ha, visual rating on 0 to 100 scale (0 no effect, 100 complete control), 13 to 15 days
Outline: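 Visual ratings (0 = no effect, 100 = complete control) versus untreated controls were taken 13–15 days after treatment of greenhouse plants. Treatment was added to paddy water held at 3 cm depth on 2-leaf-stage seedlings.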

[4] = tested on: ryegrass, Italian; experiment: Test C preemergence; type: in vivo, Lolium multiflorum; conditions: for Plant response rating (scale of 0 to 100), Ryegrass, Italian: Preemergence, 250 g ai/ha
Outline: (§2)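 Visual rating, 0–100 scale (0 no effect, 100 complete control), vs untreated controls after 13–15 d greenhouse. Pre: seeds in loam/sand, treated at sowing. Post: plants in peat-based mix, 1- to 4-leaf (2–18 cm). Solvent + surfactant formulation, non-phytotoxic.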

[5] = tested on: crabgrass, large; experiment: Test C preemergence; type: in vivo, Digitaria sanguinalis; conditions: for Plant response rating (scale of 0 to 100), Crabgrass, Large: Preemergence, 250 g ai/ha
Outline: as §2

[6] = tested on: foxtail, giant; experiment: Test C preemergence; type: in vivo, Setaria faberii; conditions: for Plant response rating (scale of 0 to 100), Foxtail, Giant: Preemergence, 250 g ai/ha
Outline: as §2

[7] = tested on: nutsedge, yellow; experiment: Test C preemergence; type: in vivo, Cyperus esculentus; conditions: for Plant response rating (scale of 0 to 100), Nutsedge, Yellow: Preemergence, 250 g ai/ha
Outline: as §2

[8] = tested on: ragweed; experiment: Test C preemergence; type: in vivo, Ambrosia elation; conditions: for Plant response rating (scale of 0 to 100), Ragweed: Preemergence, 250 g ai/ha
Outline: as §2

[9] = tested on: waterhemp; experiment: Test C preemergence; type: in vivo, Amaranthus rudis; conditions: for Plant response rating (scale of 0 to 100), Waterhemp: Preemergence, 250 g ai/ha
Outline: as §2

[10] = tested on: ryegrass, Italian; experiment: Test C postemergence; type: in vivo, Lolium multiflorum; conditions: for Plant response rating (scale of 0 to 100 where 0 is no effect and 100 is complete control), Ryegrass, Italian: Postemergence, 31 g ai/ha, visually evaluated after 13 to 15 days; for Ryegrass, Italian plant response rating / Plant response rating, Ryegrass, Italian: postemergence; for Ryegrass, Italian plant response rating: 62 g ai/ha, scale 0 to 100
Outline: as §2

[11] = tested on: corn; experiment: Test C postemergence; type: in vivo, Zea mays; conditions: for Plant response rating (scale of 0 to 100 where 0 is no effect and 100 is complete control), Corn: Postemergence, 31 g ai/ha, visually evaluated after 13 to 15 days; for Corn plant response rating / Plant response rating, Corn: postemergence; for Corn plant response rating: 62 g ai/ha, scale 0 to 100
Outline: as §2

[12] = tested on: lambsquarters; experiment: Test C postemergence; type: in vivo, Chenopodium album; conditions: for Plant response rating (scale of 0 to 100 where 0 is no effect and 100 is complete control), Lambsquarters: Postemergence, 31 g ai/ha, visually evaluated after 13 to 15 days; for Lambsquarters plant response rating / Plant response rating, Lambsquarters: postemergence; for Lambsquarters plant response rating: 62 g ai/ha, scale 0 to 100
Outline: as §2

[13] = tested on: waterhemp; experiment: Test C postemergence; type: in vivo, Amaranthus rudis; conditions: for Plant response rating (scale of 0 to 100 where 0 is no effect and 100 is complete control), Waterhemp: Postemergence, 31 g ai/ha, visually evaluated after 13 to 15 days; for Waterhemp plant response rating / Plant response rating, Waterhemp: postemergence; for Waterhemp plant response rating: 62 g ai/ha, scale 0 to 100
Outline: as §2

[14] = 125 g ai/ha, visual injury, 0 to 100 scale, approx. 10 days
[15] = 500 g ai/ha, visual injury after approx. 10 days, 0 to 100 scale (0 no effect, 100 complete control)
[16] = Postemergence, 500 g ai/ha, visual rating after approx. 10 days, 0 to 100 scale (0 no effect, 100 complete control)
[17] = postemergence, 125 g ai/ha, about 10 days, visual rating on 0 to 100 scale (0 no effect, 100 complete control)
[18] = preemergence, 31 g ai/ha, visual rating, scale 0 to 100 (0 no effect, 100 complete control), 13 to 15 days
[19] = preemergence, 62 g ai/ha, scale 0 to 100 (0 no effect, 100 complete control), 13 to 15 days
[20] = preemergence, 125 g ai/ha, scale 0 to 100, 0 is no effect, 100 is complete control
[21] = 250 g ai/ha, scale 0 to 100 (0 no effect, 100 complete control)
[22] = 125 g ai/ha, scale 0 to 100, 0 no effect, 100 complete control
[23] = preemergence, 125 g ai/ha, 13 to 15 days, scale 0 to 100, 0 = no effect, 100 = complete control

## CCc1cc(C(=O)NCC(F)(F)F)nn1Cc1cc(C(F)(F)F)nn1C [Compound 108, 5-ethyl-1-[[1-methyl-3-(trifluoromethyl)-1H-pyrazole-5-yl]methyl]-N-(2,2,2-trifluoroethyl)-1H-pyrazole-3-carboxamide]
[1]; [14]
  Wheat plant response rating: 10
[1]; [15]
  Wheat plant response rating: 100
[2]; [16]
  Pigweed plant response rating: 100
[2]; [17]
  Pigweed plant response rating: 90
[3]
  Plant response rating, Ducksalad: 60
[4]
  Plant response rating (scale of 0 to 100), Ryegrass, Italian: 100
[4]; [18]
  Ryegrass, Italian plant response rating: 30
[4]; [19]
  Ryegrass, Italian plant response rating: 60
[4]; [20]
  Ryegrass, Italian plant response rating: 90
[5]
  Plant response rating (scale of 0 to 100), Crabgrass, Large: 100
[5]; [18]
  Crabgrass, Large plant response rating: 100
[5]; [19]
  Crabgrass, Large plant response rating: 100
[5]; [20]
  Crabgrass, Large plant response rating: 100
[6]
  Plant response rating (scale of 0 to 100), Foxtail, Giant: 100
[6]; [18]
  Foxtail, Giant plant response rating: 100
[6]; [19]
  Foxtail, Giant plant response rating: 100
[6]; [20]
  Foxtail, Giant plant response rating: 100
[7]
  Plant response rating (scale of 0 to 100), Nutsedge, Yellow: 85
[7]; [18]
  Nutsedge, Yellow plant response rating: 5
[7]; [19]
  Nutsedge, Yellow plant response rating: 40
[8]
  Plant response rating (scale of 0 to 100), Ragweed: 100
[8]; [18]
  Ragweed plant response rating: 95
[8]; [19]
  Ragweed plant response rating: 95
[8]; [20]
  Ragweed plant response rating: 95
[9]
  Plant response rating (scale of 0 to 100), Waterhemp: 100
[9]; [18]
  Waterhemp plant response rating: 98
[9]; [19]
  Waterhemp plant response rating: 100
[9]; [20]
  Waterhemp plant response rating: 100
[10]
  Plant response rating (scale of 0 to 100 where 0 is no effect and 100 is complete control), Ryegrass, Italian: 0
  Ryegrass, Italian plant response rating: 5
[10]; [21]
  Plant response rating, Ryegrass, Italian: 20
[10]; [22]
  Plant response rating, Ryegrass, Italian: 5
[11]
  Plant response rating (scale of 0 to 100 where 0 is no effect and 100 is complete control), Corn: 5
  Corn plant response rating: 5
[11]; [21]
  Plant response rating, Corn: 35
[11]; [22]
  Plant response rating, Corn: 15
[12]
  Plant response rating (scale of 0 to 100 where 0 is no effect and 100 is complete control), Lambsquarters: 60
  Lambsquarters plant response rating: 60
[12]; [21]
  Plant response rating, Lambsquarters: 85
[12]; [22]
  Plant response rating, Lambsquarters: 80
[13]
  Plant response rating (scale of 0 to 100 where 0 is no effect and 100 is complete control), Waterhemp: 5
  Waterhemp plant response rating: 50
[13]; [21]
  Plant response rating, Waterhemp: 80
[13]; [22]
  Plant response rating, Waterhemp: 50

## CCCNC(=O)c1cc(CC)n(Cc2nc(C(F)(F)F)nn2C)n1 [Compound 109]
[1]; [14]
  Wheat plant response rating: 30
[1]; [15]
  Wheat plant response rating: 90
[2]; [16]
  Pigweed plant response rating: 90
[2]; [17]
  Pigweed plant response rating: 90
[3]
  Plant response rating, Ducksalad: 0
[4]
  Plant response rating (scale of 0 to 100), Ryegrass, Italian: 100
[4]; [18]
  Ryegrass, Italian plant response rating: 10
[4]; [19]
  Ryegrass, Italian plant response rating: 50
[4]; [20]
  Ryegrass, Italian plant response rating: 100
[5]
  Plant response rating (scale of 0 to 100), Crabgrass, Large: 100
[5]; [18]
  Crabgrass, Large plant response rating: 90
[5]; [19]
  Crabgrass, Large plant response rating: 100
[5]; [20]
  Crabgrass, Large plant response rating: 100
[6]
  Plant response rating (scale of 0 to 100), Foxtail, Giant: 100
[6]; [18]
  Foxtail, Giant plant response rating: 100
[6]; [19]
  Foxtail, Giant plant response rating: 100
[6]; [20]
  Foxtail, Giant plant response rating: 100
[7]
  Plant response rating (scale of 0 to 100), Nutsedge, Yellow: 60
[7]; [18]
  Nutsedge, Yellow plant response rating: 5
[7]; [19]
  Nutsedge, Yellow plant response rating: 25
[7]; [20]
  Nutsedge, Yellow plant response rating: 40
[8]
  Plant response rating (scale of 0 to 100), Ragweed: 100
[8]; [18]
  Ragweed plant response rating: 100
[8]; [19]
  Ragweed plant response rating: 100
[8]; [20]
  Ragweed plant response rating: 100
[9]
  Plant response rating (scale of 0 to 100), Waterhemp: 100
[9]; [18]
  Waterhemp plant response rating: 75
[9]; [19]
  Waterhemp plant response rating: 100
[9]; [20]
  Waterhemp plant response rating: 100
[10]
  Plant response rating (scale of 0 to 100 where 0 is no effect and 100 is complete control), Ryegrass, Italian: 5
  Ryegrass, Italian plant response rating: 5
[10]; [21]
  Plant response rating, Ryegrass, Italian: 10
[10]; [22]
  Plant response rating, Ryegrass, Italian: 5
[11]
  Plant response rating (scale of 0 to 100 where 0 is no effect and 100 is complete control), Corn: 5
  Corn plant response rating: 10
[11]; [21]
  Plant response rating, Corn: 15
[11]; [22]
  Plant response rating, Corn: 15
[12]
  Plant response rating (scale of 0 to 100 where 0 is no effect and 100 is complete control), Lambsquarters: 45
  Lambsquarters plant response rating: 45
[12]; [21]
  Plant response rating, Lambsquarters: 85
[12]; [22]
  Plant response rating, Lambsquarters: 65
[13]
  Plant response rating (scale of 0 to 100 where 0 is no effect and 100 is complete control), Waterhemp: 35
  Waterhemp plant response rating: 35
[13]; [21]
  Plant response rating, Waterhemp: 75
[13]; [22]
  Plant response rating, Waterhemp: 60

## CCONC(=O)c1cc(CC)n(Cc2ccnc(OC(F)F)c2)n1 [Compound 131]
[1]; [14]
  Wheat plant response rating: 90
[1]; [15]
  Wheat plant response rating: 100
[2]; Postemergence, 500 g ai/ha, 0 to 100 scale (0 no effect, 100 complete control)
  Pigweed plant response rating: 100
[2]; [17]
  Pigweed plant response rating: 100
[3]
  Plant response rating, Ducksalad: 90
[4]
  Plant response rating (scale of 0 to 100), Ryegrass, Italian: 95
[4]; [18]
  Ryegrass, Italian plant response rating: 15
[4]; [19]
  Ryegrass, Italian plant response rating: 55
[4]; [23]
  Plant response rating, Ryegrass, Italian: 85
[5]
  Plant response rating (scale of 0 to 100), Crabgrass, Large: 100
[5]; [18]
  Crabgrass, Large plant response rating: 90
[5]; [19]
  Crabgrass, Large plant response rating: 100
[5]; [23]
  Plant response rating, Crabgrass, Large: 100
[6]
  Plant response rating (scale of 0 to 100), Foxtail, Giant: 100
[6]; [18]
  Foxtail, Giant plant response rating: 85
[6]; [19]
  Foxtail, Giant plant response rating: 100
[6]; [23]
  Plant response rating, Foxtail, Giant: 100
[7]
  Plant response rating (scale of 0 to 100), Nutsedge, Yellow: 90
[7]; [18]
  Nutsedge, Yellow plant response rating: 45
[7]; [19]
  Nutsedge, Yellow plant response rating: 50
[7]; [23]
  Plant response rating, Nutsedge, Yellow: 95
[8]
  Plant response rating (scale of 0 to 100), Ragweed: 100
[8]; [18]
  Ragweed plant response rating: 75
[8]; [19]
  Ragweed plant response rating: 85
[8]; [23]
  Plant response rating, Ragweed: 100
[9]
  Plant response rating (scale of 0 to 100), Waterhemp: 100
[9]; [18]
  Waterhemp plant response rating: 100
[9]; [19]
  Waterhemp plant response rating: 100
[9]; [23]
  Plant response rating, Waterhemp: 100
[10]
  Plant response rating (scale of 0 to 100 where 0 is no effect and 100 is complete control), Ryegrass, Italian: 5
  Ryegrass, Italian plant response rating: 5
[10]; [21]
  Plant response rating, Ryegrass, Italian: 10
[10]; [22]
  Plant response rating, Ryegrass, Italian: 10
[11]
  Plant response rating (scale of 0 to 100 where 0 is no effect and 100 is complete control), Corn: 5
  Corn plant response rating: 5
[11]; [21]
  Plant response rating, Corn: 50
[11]; [22]
  Plant response rating, Corn: 5
[12]
  Plant response rating (scale of 0 to 100 where 0 is no effect and 100 is complete control), Lambsquarters: 15
  Lambsquarters plant response rating: 40
[12]; [21]
  Plant response rating, Lambsquarters: 85
[12]; [22]
  Plant response rating, Lambsquarters: 65
[13]
  Plant response rating (scale of 0 to 100 where 0 is no effect and 100 is complete control), Waterhemp: 55
  Waterhemp plant response rating: 55
[13]; [21]
  Plant response rating, Waterhemp: 80
[13]; [22]
  Plant response rating, Waterhemp: 65
